Measurements from US20200283384A1, “ANTIBACTERIAL COMPOUNDS AND METHODS OF USE THEREOF” (Wayne State University, priority 2016, published 2020).
In brackets after ≈: the same amount, converted by molar mass. Read-outs that look alike come from different tables or passages of the source.

Tests used:
[1] = tested on: S. aureus clinical isolates; experiment: Synergistic effect with oxacillin (oxacillin MIC alone and in presence of SIC); assay type: cell-based, Staphylococcus aureus
Experimental: The synergistic effect (interaction) of HN18 and HN34 with different antibiotics against S. aureus clinical isolates was studied. The oxacillin MIC values of 8 clinical isolates of Staphylococcus aureus were determined. The oxacillin MIC of the same isolates were also determined after they were exposed to SIC of HN18, HN34 (Table 5). […] Column 2 and 3 show the oxacillin MIC value of the same isolates in presence of SIC of HN18 and HN34 respectively.

[2] = tested on: 24 strains of S. aureus (SA1-SA24); experiment: Broth micro-dilution MIC against 24 strains of S. aureus; assay type: cell-based; conditions: for MIC: Staphylococcus aureus, read-out: Compound MIC
Experimental: Compounds were tested for their anti-bacterial activity against 56 clinical isolates including 24 clinical isolates of methicillin resistant S. aureus (MRSA) and methicillin-susceptible S. aureus (MSSA), 8 strains of Enterococcus, 8 strains of Acinetobacter baumannii, 8 strains of Klebsiella pneumoniae, and 8 strains of Pseudomonas aeruginosa using a standard broth micro-dilution method as recommended by the Clinical and Laboratory Standard Institute (CLSI, M100, s23).
HN18 HN19, and HN34 were tested by a broth micro-dilution method to determine their minimal inhibitory concentration (MIC) against 24 strains of S. aureus (SA1-SA24) (Table 2). […]. Furthermore, the results for HN18 and HN34 were consistent across four repeated experiments. […]

[3] = tested on: methicillin-resistant S. aureus clinical isolates (MRSA); S. aureus (K1902); experiment: Plasmid curing at sub-inhibitory concentration; assay type: cell-based, Staphylococcus aureus
Experimental: Plasmid curing was performed per Trevors (Trevors, 1986 Plasmid curing in bacteria. FEMS Microbiology, 32: 149-157). In brief, the clinical isolate was grown in the presence of HN18 and HN34 at the specified concentration for 18 h at 35° C. and then plated on Muller Hinton agar (MHA) plates to obtain isolated colonies. The isolated colonies were then replica plated onto MHA and MHA plates containing antibiotics. […] The percentage curing efficiency was expressed as the number of colonies with cured phenotype per 100 colonies tested. For plasmid extraction, 5 ml of an overnight culture of S. aureus strain was centrifuged and cells were subjected to 1 ml lysostaphin (20 μg/ml) for 1 hour at 35° C. prior to DNA extraction. Extraction of DNA was carried using QIAprep Spin Miniprep Kit (Qiagen) per manufacturer's instruction. DNA profile analysis was carried out by electrophoresis on 1.5% agarose gel.
The methicillin-resistant S. aureus clinical isolates (MRSA) growing in the presence of sub-inhibitory concentrations of HN18 and HN34 were taken for the evaluation for the loss of plasmids as described above. A culture control without a curing agent was also maintained in the curing experiment to estimate the rate of spontaneous loss of plasmids under these conditions. HN18 and HN34 eliminated the plasmid mediated antibiotic resistance markers with varying curing efficiencies (Table 3). HN18 cured plasmids from SA1, SA2, SA7 and SA8 at frequency in the range of 13-100%. HN34 also cured plasmids from SA1, SA2, SA7 and SA8 strains with 30%-100% curing efficiency.
Plasmid curing activity of HN18 and HN34 was also evaluated in S. aureus (K1902) which is known to harbor a 5 kb plasmid with a chloramphenicol resistance gene. Along with the KSA reference strain, the plasmid curing activity was repeated for SA1 and SA2 strains which are MRSA (Table 4).

[4] = Table 3, isolate SA1, at SIC, lack of growth in presence of M, Ox (4 μg/ml)
[5] = Table 3, isolate SA2, at SIC, lack of growth in presence of M, Ox (4 μg/ml)
[6] = Table 3, isolate SA3, at SIC, lack of growth in presence of M, Ox (4 μg/ml)
[7] = Table 3, isolate SA4, at SIC, lack of growth in presence of M, Ox (4 μg/ml)
[8] = Table 3, isolate SA5, at SIC, lack of growth in presence of M, Ox (4 μg/ml)
[9] = Table 3, isolate SA6, at SIC, lack of growth in presence of M, Ox (4 μg/ml)
[10] = Table 3, isolate SA7, at SIC, lack of growth in presence of M, Ox (4 μg/ml)
[11] = Table 3, isolate SA8, at SIC, lack of growth in presence of M, Ox (4 μg/ml)

Fc1ccc(C(C2=CNC3C=CC=CC23)C2=C3C=CC=CC3NC2)cc1F (stereo not drawn) [HN18, 3-((3,4-difluorophenyl)(2,7a-dihydro-1H-indol-3-yl)methyl)-3a,7a-dihydro-1H-indole]
Synergistic activity in combination with oxacillin ([1]; S. aureus clinical isolates, compound at SIC): decrease in the oxacillin MIC | Oxacillin MIC in presence of SIC of the compound (1 μg/ml) ([1]; isolate SA3, experiment I): 0.5 µg/mL | Oxacillin MIC in presence of SIC of the compound (1 μg/ml) ([1]; isolate SA3, experiment II): 0.5 µg/mL | Oxacillin MIC in presence of SIC of the compound (1 μg/ml) ([1]; isolate SA4, experiment I): 0.5 µg/mL | Oxacillin MIC in presence of SIC of the compound (1 μg/ml) ([1]; isolate SA4, experiment II): 1 µg/mL | Oxacillin MIC in presence of SIC of the compound (1 μg/ml) ([1]; isolate SA5, experiment I): 0.03 µg/mL | Oxacillin MIC in presence of SIC of the compound (1 μg/ml) ([1]; isolate SA5, experiment II): 0.03 µg/mL | Oxacillin MIC in presence of SIC of the compound (1 μg/ml) ([1]; isolate SA9, experiment I): 2 µg/mL | Oxacillin MIC in presence of SIC of the compound (1 μg/ml) ([1]; isolate SA9, experiment II): 4 µg/mL | Oxacillin MIC in presence of SIC of the compound (1 μg/ml) ([1]; isolate SA10, experiment I): <0.03 µg/mL | Oxacillin MIC in presence of SIC of the compound (1 μg/ml) ([1]; isolate SA10, experiment II): <0.03 µg/mL | Oxacillin MIC in presence of SIC of the compound (1 μg/ml) ([1]; isolate SA11, experiment I): <0.03 µg/mL | Oxacillin MIC in presence of SIC of the compound (1 μg/ml) ([1]; isolate SA11, experiment II): <0.03 µg/mL | Oxacillin MIC in presence of SIC of the compound (1 μg/ml) ([1]; isolate SA15, experiment I): <0.03 µg/mL | Oxacillin MIC in presence of SIC of the compound (1 μg/ml) ([1]; isolate SA15, experiment II): <0.03 µg/mL | Oxacillin MIC in presence of SIC of the compound (1 μg/ml) ([1]; isolate SA18, experiment I): <0.03 µg/mL | Oxacillin MIC in presence of SIC of the compound (1 μg/ml) ([1]; isolate SA18, experiment II): <0.03 µg/mL | Effect against the panel of S. aureus strains ([2]; 24 strains SA1-SA24, broth micro-dilution): effective | MIC ([2]; isolate SA1, experiment I): 0.5 µg/mL (≈ 1.38 µM) | MIC ([2]; isolate SA1, experiment II): 1 µg/mL (≈ 2.76 µM) | MIC ([2]; isolate SA1, experiment III): 1 µg/mL (≈ 2.76 µM) | MIC ([2]; isolate SA1, experiment IV): 1 µg/mL (≈ 2.76 µM) | MIC ([2]; isolate SA2, experiment I): 1 µg/mL (≈ 2.76 µM) | MIC ([2]; isolate SA2, experiment II): 2 µg/mL (≈ 5.52 µM) | MIC ([2]; isolate SA2, experiment III): 2 µg/mL (≈ 5.52 µM) | MIC ([2]; isolate SA2, experiment IV): 2 µg/mL (≈ 5.52 µM) | MIC ([2]; isolate SA3, experiment I): 1 µg/mL (≈ 2.76 µM) | MIC ([2]; isolate SA3, experiment II): 2 µg/mL (≈ 5.52 µM) | MIC ([2]; isolate SA3, experiment III): 2 µg/mL (≈ 5.52 µM) | MIC ([2]; isolate SA3, experiment IV): 2 µg/mL (≈ 5.52 µM) | MIC ([2]; isolate SA4, experiment I): 1 µg/mL (≈ 2.76 µM) | MIC ([2]; isolate SA4, experiment II): 2 µg/mL (≈ 5.52 µM) | MIC ([2]; isolate SA4, experiment III): 1 µg/mL (≈ 2.76 µM) | MIC ([2]; isolate SA4, experiment IV): 2 µg/mL (≈ 5.52 µM) | MIC ([2]; isolate SA5, experiment I): 1 µg/mL (≈ 2.76 µM) | MIC ([2]; isolate SA5, experiment II): 1 µg/mL (≈ 2.76 µM) | MIC ([2]; isolate SA5, experiment III): 1 µg/mL (≈ 2.76 µM) | MIC ([2]; isolate SA5, experiment IV): 2 µg/mL (≈ 5.52 µM) | MIC ([2]; isolate SA6, experiment I): 1 µg/mL (≈ 2.76 µM) | MIC ([2]; isolate SA6, experiment II): 2 µg/mL (≈ 5.52 µM) | MIC ([2]; isolate SA6, experiment III): 2 µg/mL (≈ 5.52 µM) | MIC ([2]; isolate SA6, experiment IV): 2 µg/mL (≈ 5.52 µM) | MIC ([2]; isolate SA7, experiment I): 0.5 µg/mL (≈ 1.38 µM) | MIC ([2]; isolate SA7, experiment II): 1 µg/mL (≈ 2.76 µM) | MIC ([2]; isolate SA7, experiment III): 1 µg/mL (≈ 2.76 µM) | MIC ([2]; isolate SA7, experiment IV): 1 µg/mL (≈ 2.76 µM) | MIC ([2]; isolate SA8, experiment I): 1 µg/mL (≈ 2.76 µM) | MIC ([2]; isolate SA8, experiment II): 2 µg/mL (≈ 5.52 µM) | MIC ([2]; isolate SA8, experiment III): 2 µg/mL (≈ 5.52 µM) | MIC ([2]; isolate SA8, experiment IV): 2 µg/mL (≈ 5.52 µM) | MIC ([2]; isolate SA9, experiment I): 2 µg/mL (≈ 5.52 µM) | MIC ([2]; isolate SA9, experiment II): 2 µg/mL (≈ 5.52 µM) | MIC ([2]; isolate SA10, experiment I): 2 µg/mL (≈ 5.52 µM) | MIC ([2]; isolate SA10, experiment II): 2 µg/mL (≈ 5.52 µM) | MIC ([2]; isolate SA11, experiment I): 2 µg/mL (≈ 5.52 µM) | MIC ([2]; isolate SA11, experiment II): 2 µg/mL (≈ 5.52 µM) | MIC ([2]; isolate SA12, experiment I): 2 µg/mL (≈ 5.52 µM) | MIC ([2]; isolate SA12, experiment II): 2 µg/mL (≈ 5.52 µM) | MIC ([2]; isolate SA13, experiment I): 2 µg/mL (≈ 5.52 µM) | MIC ([2]; isolate SA13, experiment II): 2 µg/mL (≈ 5.52 µM) | MIC ([2]; isolate SA14, experiment I): 0.5 µg/mL (≈ 1.38 µM) | MIC ([2]; isolate SA14, experiment II): 0.5 µg/mL (≈ 1.38 µM) | MIC ([2]; isolate SA15, experiment I): 2 µg/mL (≈ 5.52 µM) | MIC ([2]; isolate SA15, experiment II): 2 µg/mL (≈ 5.52 µM) | MIC ([2]; isolate SA16, experiment I): 1 µg/mL (≈ 2.76 µM) | MIC ([2]; isolate SA16, experiment II): 2 µg/mL (≈ 5.52 µM) | MIC ([2]; isolate SA17, experiment I): 2 µg/mL (≈ 5.52 µM) | MIC ([2]; isolate SA17, experiment II): 2 µg/mL (≈ 5.52 µM) | MIC ([2]; isolate SA18, experiment I): 2 µg/mL (≈ 5.52 µM) | MIC ([2]; isolate SA18, experiment II): 2 µg/mL (≈ 5.52 µM) | MIC ([2]; isolate SA19, experiment I): 2 µg/mL (≈ 5.52 µM) | MIC ([2]; isolate SA19, experiment II): 2 µg/mL (≈ 5.52 µM) | MIC ([2]; isolate SA20, experiment I): 2 µg/mL (≈ 5.52 µM) | MIC ([2]; isolate SA20, experiment II): 2 µg/mL (≈ 5.52 µM) | MIC ([2]; isolate SA21, experiment I): 2 µg/mL (≈ 5.52 µM) | MIC ([2]; isolate SA21, experiment II): 2 µg/mL (≈ 5.52 µM) | MIC ([2]; isolate SA22, experiment I): 2 µg/mL (≈ 5.52 µM) | MIC ([2]; isolate SA22, experiment II): 2 µg/mL (≈ 5.52 µM) | MIC ([2]; isolate SA23, experiment I): 2 µg/mL (≈ 5.52 µM) | MIC ([2]; isolate SA23, experiment II): 2 µg/mL (≈ 5.52 µM) | MIC ([2]; isolate SA24, experiment I): 2 µg/mL (≈ 5.52 µM) | MIC ([2]; isolate SA24, experiment II): 2 µg/mL (≈ 5.52 µM) | Plasmid band in agarose gel of cured derivatives ([3]; S. aureus K1902, FIG. 3): absent | Susceptibility of isolates after exposure to SIC ([3]; SA1 and SA2 to oxacillin, KSA to chloramphenicol): became susceptible | Curing efficiency I [3, 4]: 0% | Curing efficiency II [3, 4]: 100% | Curing efficiency I [3, 5]: 100% | Curing efficiency II [3, 5]: 50% | Curing efficiency I [3, 6]: 0% | Curing efficiency II [3, 6]: 0% | Curing efficiency I [3, 7]: 100% | Curing efficiency II [3, 7]: 0% | Curing efficiency I [3, 8]: 0% | Curing efficiency II [3, 8]: 0% | Curing efficiency I [3, 9]: 0% | Curing efficiency II [3, 9]: 0% | Curing efficiency I [3, 10]: 23% | Curing efficiency II [3, 10]: 90% | Curing efficiency I [3, 11]: 13% | Curing efficiency II [3, 11]: 70% | Curing efficiency (%) ([3]; Table 4, KSA (S. aureus K1902), experiment I, lack of growth in presence of Cm (10 μg/ml)): 36.6% | Curing efficiency (%) ([3]; Table 4, KSA (S. aureus K1902), experiment II, lack of growth in presence of Cm (10 μg/ml)): 46.6% | Curing efficiency (%) ([3]; Table 4, isolate SA1, experiment I, lack of growth in presence of M, Ox (4 μg/ml)): 63.3% | Curing efficiency (%) ([3]; Table 4, isolate SA2, experiment I, lack of growth in presence of M, Ox (4 μg/ml)): 100% | Plasmid curing frequency / curing efficiency ([3]; range over SA1, SA2, SA7 and SA8): 13-100%
